Laboratory results: patent publication US20180116993A1, “MODULATORS OF FARNESOID X RECEPTOR AND METHODS FOR THE USE THEREOF” (XIAMEN UNIVERSITY, priority 2015, published 2018)
Marks after values point to notes of the source that are not given here.

How the values were obtained:
[1] = tested on: mice with APAP-induced liver injury; experiment: Acetaminophen (APAP)-induced liver injury in mouse; format: in vivo; details: for ALT (U/L) / Hepatic GSH (μM/g liver tissue): then APAP 500 mg/kg; for ALT (U/L): serum, vehicle 786 ± 111; for Liver morphology by H&E staining (FIG. 1): 10 mg/kg (Tschimganine 20 mg/kg) i.p. five days, then APAP, compared to severe liver injury in control group; for expression levels of GPX1 and UGT1α1 in liver: mRNA by RT-PCR; for expression levels of GPX1 and UGT1α1 in liver / activities of serum AST, ALT and LDH: vs vehicle control group, Table 5 (not given)
Source text: Methods: Acetaminophen (APAP)-induced liver injury in mouse is a commonly used model to study drugs protecting liver. Overdose of APAP causes liver injury by inducing the production of reactive oxygen species and reactive nitrogen species, and excessive consumption of reductive substances such as antioxidant glutathione (GSH), leading to the reduction of GSH in vivo, and the following upregulation of the activities of the aspartate aminotransferase (AST), the alanine aminotransferase (ALT) and the lactate dehydrogenase (LDH), which will result in liver inflammation and necrosis. In this example, the APAP-induced liver injury was used to detect the protection and repair functions of our compounds in liver injury.
One-year or 8-week age mice were maintained under environmentally controlled conditions with free access to standard chow diet and water. Animal experiments were conducted in the barrier facility of the Laboratory Animal Center, Xiamen University, approved by the Institutional Animal Use and Care Committee of Xiamen University, China.
Compounds were solved with DMSO and then prepared to work concentration with 40% HBC (2-hydroxypropyl-β-cyclodextrin) in which the final work concentrations of compounds are 5 mg/kg body weight, 10 mg/kg or 20 mg/kg in 100 μl injection volume and the concentration of DMSO is 10%. Compounds were intraperitoneal (i.p.) injected once daily for five days. For Feroline and Tschimganine, one-year age mice were used in the experiment. For other compounds, 8-week age mice were used. […] For Tschimganine, 20 mg/kg dose of compound was administered to mice. For other compounds, 5 mg/kg dose of compounds were administered to mice. Six hours after the fifth injection, 500 mg/kg body weight of APAP solved in PBS was i.p. injected to the mice. 24 hours later, mice were sacrificed. Part of each liver was fixed in 4% paraformaldehyde, and the liver histology characterization was analyzed by haematoxylin and eosin (H&E) staining with paraffin-embedded sections by standard procedures. Other liver tissues were collected for detecting the GSH levels, and the mRNA expression of genes involved in liver repairing, such as GPX1 and UGT1a1, by RT-PCR. The serums were collected to measure enzymes activities including AST, ALT and LDH. For the synthetic derivatives, ALT and GSH were selected as indicating markers for the function of these compounds.

[2] = tested on: db/db mice; experiment: Hepatic triglyceride, liver histology, serum ALT and ALP in high-fat diet fed db/db mice; format: in vivo, mouse; details: for Serum ALP (U/L): vehicle 129 ± 15; for Hepatic triglyceride (mM/g): vehicle 148 ± 14
Outline: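 High-fat diet fed db/db mice aged 8-10 weeks dosed 10 mg/kg compound once daily for 10 days. Liver sections stained with H&E and 0.3% oil red O; hepatic triglyceride measured by tissue assay kit; serum ALP and ALT activities measured by kit.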

[3] = tested on: db/db mice; experiment: Serum/blood metabolic parameters in high-fat diet fed db/db mice; format: in vivo, mouse
Outline: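 db/db mice aged 8–10 weeks on high-fat diet received compounds i.p. once daily for 7, 10, 11 or 14 days, then were fasted 6 h and sacrificed. Serum glucose (glucose oxidase), insulin (ELISA), cholesterol, FFA and triglycerides measured by kits; some blood glucose by tail strips after the 6th injection and 16 h fast.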

[4] = tested on: inflammatory cytokines in tissues of db/db mice; experiment: Inflammatory cytokine mRNA levels in tissues of high-fat diet fed db/db mice (RT-PCR); format: in vivo, mouse; details: 5 mg/kg
Source text: In this example, we detected the levels of various inflammatory cytokines including iNOS, IFNγ, TGFβ, TNFα, COX2, IL-1β, IL-6, SAA1, MIP-1α and CD36 in liver, kidney, white adipose tissue (WAT) in various mice models, including wild type mice treated with APAP in example 4, high-fat diet fed diabetic and obesity db/db and KK-Ay mice in example 5, high-fat diet fed wild-type mice in Example 5, as well as in primary hepatocytes with LPS induced inflammation, using RT-PCR.

[5] = 5 mg/kg i.p. once daily for five days, 8-week age mice
[6] = 10 mg/kg once daily for 10 days
[7] = 10 mg/kg once daily for 10 days, vehicle 377 ± 48, Table 17
[8] = 10 mg/kg for 10 days, vehicle 377 ± 48, Table 15
[9] = 10 mg/kg, treat for 10 days, vehicle 527 ± 63
[10] = 5 mg/kg i.p. once daily for five days, 8-week age mice, vehicle 9.1 ± 0.5

COc1cc(C(=O)OC2CCCCCCC2)ccc1O [XD-18, cyclooctyl 4-hydroxy-3-methoxybenzoate]
ALT (U/L) [1, 5]: 135 ± 48 ^a U/L | Serum ALP (U/L) [2, 6]: 77 ± 9^c U/L | Serum ALT (U/L) [2, 7]: 129 ± 19^b U/L

COc1cc(C(=O)OC2C/C(C)=C/CC/C(C)=C/[C@@H](O)[C@H]2C(C)C)ccc1O (stereo partly drawn) [Tschimganidine]
Liver morphology by H&E staining (FIG. 1) [1]: almost normal liver morphology | expression levels of GPX1 and UGT1α1 in liver [1]: significantly upregulated | activities of serum AST, ALT and LDH [1]: dramatically lower

CC1(C)C2CCC1(C)C(OC(=O)c1ccc(=O)[nH]c1)C2 (stereo not drawn) [XD-8, 1,7,7-trimethyl-bicyclo[2.2.1]-heptan-2-yl 6-oxo-1,6-dihydropyridine-3-carboxylate]
ALT (U/L) [1, 5]: 115 ± 38 ^c U/L | Hepatic triglyceride (mM/g) ([2]; 10 mg/kg for 10 days): 102 ± 8 ^c mM/g | Serum ALT (U/L) [2, 8]: 115 ± 31 ^a U/L

CC1(C)C2CCC1(C)C(OC(=O)c1ccc(=O)oc1)C2 (stereo not drawn) [XD-9, 1,7,7-trimethyl-bicyclo[2.2.1]-heptan-2-yl 6-oxo-6H-pyran-3-carboxylate]
Serum Glucose (mg/dl) [3, 9]: 399 ± 41^a mg/dl | Hepatic triglyceride (mM/g) ([2]; 10 mg/kg for 10 days): 93 ± 14 ^a mM/g | Serum ALT (U/L) [2, 8]: 121 ± 33 ^a U/L

CC1(C)C2CCC1(C)C(OC(=O)c1ccc(F)cc1)C2 (stereo not drawn) [XD-0, 1,7,7-trimethyl-bicyclo[2.2.1]-heptan-2-yl 4-fluorobenzoate]
Hepatic GSH (μM/g liver tissue) [1, 10]: 15.0 ± 0.5 ^b μM/g liver tissue | Serum Glucose (mg/dl) [3, 9]: 223 ± 33^b mg/dl | Hepatic triglyceride (mM/g) ([2]; 10 mg/kg for 10 days): 91 ± 22 ^a mM/g | Serum ALT (U/L) [2, 8]: 106 ± 22 ^a U/L

Cc1cc(C(=O)OC2CCC3CCCCC3C2)ccc1[N+](=O)[O-] (stereo not drawn) [XD-35, decahydro-naphthalen-2-yl 3-methyl-4-nitro-benzoate]
Hepatic GSH (μM/g liver tissue) [1, 10]: 12.6 ± 1.6 ^a μM/g liver tissue | Serum Glucose (mg/dl) [3, 9]: 337 ± 67^a mg/dl

CC1(C)C2CCC1(C)C(OC(=O)c1ccc(F)c(Br)c1)C2 (stereo not drawn) [XD-13, 1,7,7-trimethyl-bicyclo[2.2.1]-heptan-2-yl 3-bromo-4-fluoro-benzoate]
Hepatic GSH (μM/g liver tissue) [1, 10]: 13.7 ± 0.9 ^a μM/g liver tissue | Serum ALP (U/L) [2, 6]: 92 ± 7^c U/L | Serum ALT (U/L) [2, 7]: 135 ± 5^c U/L

Nc1ccc(C(=O)OC2CCCCCC2)cc1 [XD-12, cycloheptyl 4-aminobenzoate]
Hepatic GSH (μM/g liver tissue) [1, 10]: 12.5 ± 0.7 ^a μM/g liver tissue | Hepatic triglyceride (mM/g) ([2]; 10 mg/kg for 10 days): 103 ± 20 ^a mM/g | Serum ALT (U/L) [2, 8]: 199 ± 37 ^a U/L

O=C(OC1CCCCCCC1)c1ccc(O)cc1 [XD-10, cyclooctyl 4-hydroxybenzoate]
mRNA level of iNOS (fold), Liver tissue ([4]; vehicle 1.06 ± 0.14): 0.52 ± 0.3^a fold | mRNA level of iNOS (fold), Colon tissue ([4]; vehicle 1.12 ± 0.23): 0.49 ± 0.21^a fold | ALT (U/L) [1, 5]: 114 ± 31 ^c U/L

Cc1cc(C(=O)OC2CCC3CCCCC3C2)ccc1O (stereo not drawn) [XD-29, decahydro-naphthalen-2-yl 4-hydroxy-3-methylbenzoate]
ALT (U/L) [1, 5]: 118 ± 31 ^c U/L | Hepatic triglyceride (mM/g) ([2]; 10 mg/kg for 10 days): 116 ± 11 ^a mM/g | Serum ALT (U/L) [2, 8]: 101 ± 46^b U/L | Serum ALP (U/L) [2, 6]: 69 ± 9^c U/L | Serum ALT (U/L) [2, 7]: 101 ± 46^b U/L

O=C(OC1CCC2CCCCC2C1)c1ccc(O)cc1 (stereo not drawn) [XD-28, decahydro-naphthalen-2-yl 4-hydroxy-benzoate]
ALT (U/L) [1, 5]: 114 ± 25 ^c U/L | Hepatic triglyceride (mM/g) ([2]; 10 mg/kg for 10 days): 87 ± 10 ^c mM/g | Serum ALT (U/L) [2, 8]: 103 ± 17^b U/L

CC1(C)[C@@H]2CC[C@@]1(C)[C@@H](OC(=O)c1ccc(O)cc1)C2 [Tschimgine]
Liver morphology by H&E staining (FIG. 1) [1]: almost normal liver morphology | expression levels of GPX1 and UGT1α1 in liver [1]: significantly upregulated | activities of serum AST, ALT and LDH [1]: dramatically lower | Serum Triglyceride (mg/dl) ([3]; 10 mg/kg for 11 days, vehicle 96 ± 16): 38 ± 8^a mg/dl | Serum Cholesterol (mg/dl) ([3]; 10 mg/kg for 11 days, vehicle 121 ± 13): 96 ± 3^a mg/dl | Serum FFA (μM) ([3]; 10 mg/kg for 11 days, vehicle 371 ± 27): 302 ± 21^a μM | Blood Glucose (mg/dl) ([3]; 10 mg/kg, 11 days, tail blood after the 6th injection and 16 h fast, vehicle 452 ± 24): 252 ± 54^b mg/dl

COc1cc(C(=O)OC2CCC3CCCCC3C2)ccc1[N+](=O)[O-] (stereo not drawn) [XD-36, decahydro-naphthalen-2-yl 3-methoxy-4-nitrobenzoate]
Hepatic GSH (μM/g liver tissue) [1, 10]: 14.8 ± 0.3 ^b μM/g liver tissue | Serum Glucose (mg/dl) [3, 9]: 366 ± 65^a mg/dl

COc1cc(C(=O)O[C@H]2C[C@H]3CC[C@]2(C)C3(C)C)ccc1O [Tschimganine]
Liver morphology by H&E staining (FIG. 1) [1]: almost normal liver morphology | Hepatic GSH (μM/g liver tissue) ([1]; 20 mg/kg i.p. once daily for five days, one-year age mice, vehicle 8.0 ± 2.8): 14.9 ± 0.6^b μM/g liver tissue | expression levels of GPX1 and UGT1α1 in liver [1]: significantly upregulated | activities of serum AST, ALT and LDH [1]: dramatically lower | Serum Insulin (ng/ml) ([3]; 10 mg/kg for 7 days, vehicle 12 ± 3): 4.7 ± 0.4^b ng/ml | Serum Glucose (mg/dl) ([3]; 10 mg/kg for 7 days, vehicle 521 ± 54): 342 ± 36^a mg/dl

CC1(C)C2CCC1(C)C(OC(=O)c1ccncc1)C2 (stereo not drawn) [XD-6, 1,7,7-trimethyl-bicyclo[2.2.1]-heptan-2-yl isonicotinate]
ALT (U/L) [1, 5]: 109 ± 26 ^c U/L | Hepatic triglyceride (mM/g) ([2]; 10 mg/kg for 10 days): 90 ± 11^b mM/g | Serum ALT (U/L) [2, 8]: 101 ± 28 ^a U/L

O=C(OC1CCCCCCCCCCC1)c1ccc(O)cc1 [XD-11, cyclododecyl 4-hydroxybenzoate]
Hepatic GSH (μM/g liver tissue) [1, 10]: 12.6 ± 0.4 ^b μM/g liver tissue | Hepatic triglyceride (mM/g) ([2]; 10 mg/kg for 10 days): 102 ± 13 ^a mM/g | Serum ALT (U/L) [2, 8]: 106 ± 26 ^a U/L

COc1cc(C(=O)OC2CCC3CCCCC3C2)ccc1O (stereo not drawn) [XD-30, decahydro-naphthalen-2-yl 4-hydroxy-3-methoxybenzoate]
ALT (U/L) [1, 5]: 107 ± 41 ^b U/L | Serum Glucose (mg/dl) [3, 9]: 400 ± 51^a mg/dl | Hepatic triglyceride (mM/g) ([2]; 10 mg/kg for 10 days): 108 ± 8 ^c mM/g | Serum ALT (U/L) [2, 8]: 92 ± 27 ^a U/L | Serum ALP (U/L) [2, 6]: 64 ± 14^a U/L | Serum ALT (U/L) [2, 7]: 92 ± 27^a U/L

C/C1=C\CCC(C)(O)/C=C/C(C(C)C)C(OC(=O)c2ccc(O)cc2)C1 (stereo not drawn) [Feroline]
Liver morphology by H&E staining (FIG. 1) [1]: almost normal liver morphology | Hepatic GSH (μM/g liver tissue) ([1]; 10 mg/kg i.p. once daily for five days, one-year age mice, vehicle 8.0 ± 2.8): 14.2 ± 1.6^b μM/g liver tissue | expression levels of GPX1 and UGT1α1 in liver [1]: significantly upregulated | activities of serum AST, ALT and LDH [1]: dramatically lower
